Test results published in paper PMC11915509, “Small molecule inhibitors of hnRNPA2B1–RNA interactions reveal a predictable sorting of RNA subsets into extracellular vesicles” (Nucleic Acids Research, 2025).

What was measured:
NF-kB = NF-kB luciferase reporter in EV-recipient HEK293T cells; type: cell-based, human; details: EVs from hnRNPA2B1 OE HEK293T donor cells treated 5 μM 6 h; recipient cells 8 h
From the text: To obtain some preliminary information on the bioactivity of identified compounds in relation to EV function, we explored the potential activation NF-kB in EV-recipient cells as a readout. […] We, therefore, used HEK293T cells as EV-recipient cells upon transfecting them with an NF-kB-responsive promoter activating the luciferase reporter. To work with an experimental set up considering the post-transcriptional effects on the readout, we evaluated if the expression of the recombinant hnRNPA2B1 could induce secretion of EVs capable of activating NF-kB if further exposed to autologous cells. […] We, therefore, exploited this system to test compounds including some indication on the relevance of the EV-RNA cargo in mediating the luciferase activation in recipient cells. […] Next, we washed with PBS and incubated cells with serum-free media for additional 24 h to recover EVs. We exposed these EVs for 8 h to HEK293T cells previously seeded in 96-well plate and transfected with the luciferase reporter plasmid for 24 h. […]
Paracrine effect on NF-kB activation of EVs deriving from RBP-conditioned and treated cells. […] Firefly luminescence was normalized on cellular protein content at the end point on the corresponding sample. […]

NSC34 cells = experiment: Cell viability dose response, NSC34; type: cell-based, mouse; details: NSC34, 24 hr
Procedure: Supplementary Figure S6. Cell viability upon treatment with Hematein. Cells were exposed to increasing concentrations of Hematein or DMSO (control vehicle) for 24 hr under standard growth conditions. […] In both cases a range of drug tolerance was observed before the drop of viability over 10 µM. The graph indicates mean and SD of two independent experiments.

EXO-motif RNA probe = experiment: Absorbance scan of compounds mixed with EXO-motif RNA; type: binding; details: EXO-motif probe, 1:5 micromolar ratio with compound, room temperature
Procedure: Five μM RNA EXO motif were mixed with 25 μM compounds in AlphaBuffer (25 mM HEPES, pH 7.4, 100 mM NaCl, 0.01% BSA) to a final volume of 20 μl. Absorbance spectrum (200–530 nm) was measured using Tecan Spark® microplate reader with a NanoQuant plate at room temperature. In fluorescence indicator displacement (FID), a 2× final concentration of Midori green advanced (Resnova) was added to the samples and the melting curve measured using Bio-Rad CFX96™ System from 30°C to 90°C.

[1] = target: T1, hnRNPA2B1-RNA 114 probe interaction (Homo sapiens, UniProt P22626); experiment: AlphaScreen with RNA 114 probe and compounds; type: binding; details: 250 nM of compounds, 14 nM RNA 114 probe
T1 construct: purified a human full-length, GST-tagged protein expressed in Escherichia coli cells; made in house; host or cells: E. coli BL21 (DE3)
T1 sequence (P22626 whole entry): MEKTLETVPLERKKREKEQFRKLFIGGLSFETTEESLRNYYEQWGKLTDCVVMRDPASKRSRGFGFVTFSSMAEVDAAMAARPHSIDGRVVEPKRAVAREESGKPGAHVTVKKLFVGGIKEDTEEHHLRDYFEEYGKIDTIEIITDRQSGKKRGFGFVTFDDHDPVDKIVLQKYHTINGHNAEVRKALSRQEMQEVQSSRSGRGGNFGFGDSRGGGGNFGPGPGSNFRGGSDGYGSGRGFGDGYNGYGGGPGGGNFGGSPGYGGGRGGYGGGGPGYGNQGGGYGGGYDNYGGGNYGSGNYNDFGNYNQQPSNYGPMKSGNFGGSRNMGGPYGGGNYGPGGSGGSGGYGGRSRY
Procedure: The assays were performed in OptiPlate-384-well plates (PerkinElmer, 6007299) in 20 μl final volume. The ligands were diluted in AlphaBuffer [25 mM HEPES, pH 7.4, 100 mM NaCl, 0.01% bovine serum albumin (BSA)] and tested using AlphaScreen GST Detection Kit (PerkinElmer, 6760603C). For the assay optimization, different concentrations of the RNA probes (0–100 nM) were incubated with different concentrations of GST-hnRNPA2B1 (0–60 nM) in the presence of streptavidin Donor beads and anti-GST-Acceptor beads (PerkinElmer) (20 μg/ml final concentration). For the reactions, 4 μl of the RNA probes were first added to the plate, then 16 μl of a mix containing all the other components was added, and the plate was incubated at room temperature for 1 h in the dark.

[2] = system: hnRNPA2B1 protein association with purine-rich RNA probe; experiment: RNA pull-down with biotinylated EXOmotif probe after cell treatment, immunoblotting; type: cell-based, mouse; details: NSC34 cells, 6 h, 5 μM compound
Procedure: To prepare native protein lysates, 1–3 × 10^6 NSC34 cells were lysed in buffer R-Lysis [25 mM HEPES, pH 7.5, 100 mM NaCl, 1× protease inhibitor (Thermo Fisher, 78429)] and subjected to a water-bath sonication (35–40 amplitude, 6–7 cycles of 7 s on and 45 s off). After a centrifugation at 14 000 rpm for 20 min at 4°C, the supernatant was collected and 200 μg were incubated with 5 μl of buffer equilibrated Dynabeads^TM M-280 Streptavidin (Invitrogen, 11205D) for 15 min at 4°C in rotation to perform a pre-clearing step. After the magnetic separation, the pre-cleared lysate was incubated with 10 μl of 100 μM RNA biotinylated probes (or 400 ng of biotinylated EV-RNA) and incubated for 1 h at 4°C in rotation. Then, 5 μl/sample of beads were added and the sample were put again in rotation for 20 min at 4°C. […]
Cells were lysed in lysis buffer [50 mM Tris–HCl, pH 7.4, 150 mM NaCl, 1 mM EDTA, 0.25% NP-40, 0.1% Triton X-100, 0.1% sodium dodecyl sulphate, 1× protease inhibitor (Thermo Fisher, 78429)]. […] The signal was measured with Amersham ECL HRP-Conjugated Antibodies (Cytiva) using BioRad Chemidoc XRS+.

O=C1C=C2CC3(O)COc4c(ccc(O)c4O)C3=C2C=C1O (stereo not drawn) [H, hematein]
EV-mediated, hnRNPA2B1-induced NF-kB activation (NF-kB): significantly counteracted
IC50 (NSC34 cells; Mus musculus, NSC-34): ~78 µM
concentration of drop of viability (NSC34 cells): over 10 µM
absorbance shifts, 300-400 nm (EXO-motif RNA probe): absorbance shifts
interference with RNA 114 probe interaction [1]: most effective inhibitors
association of hnRNPA2B1 protein with exogenous purine-rich RNA probe [2]: most effective
